In PubChem BioAssay AID330 (DTP/NCI, 2004):
Toxic doses and inconclusive results are not listed.

System: P388 leukemia ip, CD2F1 mice, survival T/C
Assay: NCI In Vivo Anticancer Drug Screen. Data for tumor model P388 Leukemia (intraperitoneal) in CD2F1 (CDF1) mice
Settings: endpoint: median survival time, higher = longer survival
In short: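 Mice carrying the transplanted tumor received test compound or vehicle. Survival was recorded in each group, and the value is the treated-group measurement divided by that of the vehicle-treated control group.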

SMILES: COc1ccc(S(=O)(=O)N/N=C\c2cc([N+](=O)[O-])cc([N+](=O)[O-])c2O)cc1OC
- T/C (dose: 50.0 mg/kg/injection, schedule: Q01DX005 (ip), vehicle: saline with Tween-80): 99 % of control
- T/C (dose: 100.0 mg/kg/injection, schedule: Q01DX005 (ip), vehicle: saline with Tween-80): 100 % of control
- T/C (dose: 200.0 mg/kg/injection, schedule: Q01DX005 (ip), vehicle: saline with Tween-80): 99 % of control

SMILES: CC(CN)OC12CC3CC(CC(C3)C1)C2 (stereo not drawn)
- T/C (dose: 60.0 mg/kg/injection, schedule: Q01DX005 (ip), vehicle: saline with Tween-80): 100 % of control
- T/C (dose: 120.0 mg/kg/injection, schedule: Q01DX005 (ip), vehicle: saline with Tween-80): 99 % of control

SMILES: CCO[Si](O[Si](OCC)(c1ccccc1)c1ccccc1)(c1ccccc1)c1ccccc1
- T/C (dose: 50.0 mg/kg/injection, schedule: Q01DX009 (ip), vehicle: saline): 93 % of control
- T/C (dose: 100.0 mg/kg/injection, schedule: Q01DX009 (ip), vehicle: saline): 102 % of control
- T/C (dose: 200.0 mg/kg/injection, schedule: Q01DX009 (ip), vehicle: saline): 91 % of control
